Paper PMC9762201 (Current Research in Pharmacology and Drug Discovery, 2022)
Entries after “also recorded” stand apart in the source; their conditions may differ.

Assays:
α1A-AR [1] = assay: cAMP assay and PAM assay in Rat-1 fibroblasts expressing α1A-AR; assay type: cell-based; settings: for PAM activity (NE-mediated cAMP potentiation, PAM assay): NE 10^−4 M held constant, compound dose-response; for intrinsic (basal) agonist activity, cAMP: compound alone, dose-response
α1A-AR [2] = target: T1, α1A-AR (Homo sapiens, UniProt P35348); assay: Total inositol phosphate assay in Rat-1 fibroblasts expressing α1A-AR; assay type: cell-based; settings: for intrinsic (basal) agonist activity, inositol phosphate: compound alone, dose-response
T1 sequence (P35348 1-466): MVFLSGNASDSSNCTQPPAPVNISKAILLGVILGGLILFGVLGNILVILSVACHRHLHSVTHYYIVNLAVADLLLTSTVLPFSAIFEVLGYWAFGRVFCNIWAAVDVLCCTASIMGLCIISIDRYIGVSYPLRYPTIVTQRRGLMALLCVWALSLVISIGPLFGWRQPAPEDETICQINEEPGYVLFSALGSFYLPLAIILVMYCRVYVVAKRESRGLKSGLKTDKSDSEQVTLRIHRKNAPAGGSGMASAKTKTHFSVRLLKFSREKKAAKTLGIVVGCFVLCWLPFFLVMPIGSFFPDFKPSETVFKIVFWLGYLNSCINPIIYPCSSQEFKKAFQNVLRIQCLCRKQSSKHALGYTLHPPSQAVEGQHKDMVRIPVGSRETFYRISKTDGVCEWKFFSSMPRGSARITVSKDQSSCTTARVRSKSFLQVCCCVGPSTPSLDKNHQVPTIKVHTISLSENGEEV

α1A-AR [3] = target: T1, α1A-AR; assay type: binding; settings: for extent of inhibition of 125I-HEAT binding at α1A-AR: 0.5 mM GTP
α1B-AR = assay type: binding; settings: 0.5 mM GTP
α1A-AR [4] = target: T1, α1A-AR; settings: ref Hwa et al., 1995; cited from earlier work
α1D-AR = target: T2, α1D-AR (Homo sapiens, UniProt P25100); assay type: binding; settings: 0.5 mM GTP
T2 sequence (P25100 1-572): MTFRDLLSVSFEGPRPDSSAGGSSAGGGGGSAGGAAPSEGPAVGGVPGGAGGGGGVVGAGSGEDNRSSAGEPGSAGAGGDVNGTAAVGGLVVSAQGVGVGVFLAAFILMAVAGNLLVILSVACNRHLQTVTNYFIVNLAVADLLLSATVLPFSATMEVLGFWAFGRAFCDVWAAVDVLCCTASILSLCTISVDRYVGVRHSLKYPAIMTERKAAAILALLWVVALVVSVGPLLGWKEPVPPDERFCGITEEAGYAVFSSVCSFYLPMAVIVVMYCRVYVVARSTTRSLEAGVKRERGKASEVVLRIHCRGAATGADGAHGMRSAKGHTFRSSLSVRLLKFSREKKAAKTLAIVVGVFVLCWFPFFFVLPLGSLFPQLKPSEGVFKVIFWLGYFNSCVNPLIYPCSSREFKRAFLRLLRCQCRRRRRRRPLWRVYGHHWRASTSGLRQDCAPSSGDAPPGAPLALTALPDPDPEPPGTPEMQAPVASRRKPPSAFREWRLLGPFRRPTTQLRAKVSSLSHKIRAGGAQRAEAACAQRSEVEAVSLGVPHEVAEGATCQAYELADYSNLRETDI

α2A-AR = target: T3, α2A-AR (Homo sapiens, UniProt P08913); assay type: binding; settings: Cos-1 membranes
T3 sequence (P08913 1-465): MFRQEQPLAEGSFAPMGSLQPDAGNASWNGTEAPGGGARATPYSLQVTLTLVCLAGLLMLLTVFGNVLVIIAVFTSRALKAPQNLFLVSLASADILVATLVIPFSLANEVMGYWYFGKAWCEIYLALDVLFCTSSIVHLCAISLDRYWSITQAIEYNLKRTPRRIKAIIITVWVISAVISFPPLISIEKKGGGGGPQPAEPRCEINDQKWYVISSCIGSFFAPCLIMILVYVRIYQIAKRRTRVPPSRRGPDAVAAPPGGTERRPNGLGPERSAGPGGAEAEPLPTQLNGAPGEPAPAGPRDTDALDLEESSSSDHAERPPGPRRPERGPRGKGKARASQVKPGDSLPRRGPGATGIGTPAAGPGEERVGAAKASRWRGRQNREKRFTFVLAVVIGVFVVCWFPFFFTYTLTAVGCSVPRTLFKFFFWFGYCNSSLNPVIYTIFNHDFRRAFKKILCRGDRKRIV

CC(C)Cc1c(OCC2=NCCN2)ccc(Cl)c1N(C)S(C)(=O)=O.Cl [Cmpd-7, N-(6-Chloro-3-((4,5-dihydro-1H-imidazol-2-yl)methoxy)-2-isobutylphenyl)-N-methylmethanesulfonamide hydrochloride]
PAM activity (NE-mediated cAMP potentiation, PAM assay) (α1A-AR [1]): abolished PAM activity

CC(C)CCc1c(OCC2=NCCN2)cccc1N(C)S(C)(=O)=O.Cl [Cmpd-10, N-(3-((4,5-Dihydro-1H-imidazol-2-yl)methoxy)-2-isopentylphenyl)-N-methylmethanesulfonamide hydrochloride]
intrinsic (basal) agonist activity, inositol phosphate (α1A-AR [2]): do not show any basal activity | PAM activity (NE-mediated cAMP potentiation, PAM assay) (α1A-AR [1]): retained PAM activity; also recorded: display PAM effect | intrinsic (basal) agonist activity, cAMP (α1A-AR [1]): do not show any basal activity

CC(C)Cc1c(OCC2=NCCN2)cccc1N(C)S(=O)(=O)C(C)C.Cl [Cmpd-12, N-(3-((4,5-Dihydro-1H-imidazol-2-yl)methoxy)-2-isobutylphenyl)-N-methylpropane-2-sulfonamide hydrochloride]
intrinsic (basal) agonist activity, inositol phosphate (α1A-AR [2]): do not show any basal activity | PAM activity (NE-mediated cAMP potentiation, PAM assay) (α1A-AR [1]): lost PAM activity; also recorded: display competitive inhibition; also recorded: abolished PAM activity | intrinsic (basal) agonist activity, cAMP (α1A-AR [1]): do not show any basal activity

CN(c1cccc(OCC2=NCCN2)c1CC(F)(F)F)S(C)(=O)=O.Cl [Cmpd-13, N-(3-((4,5-Dihydro-1H-imidazol-2-yl)methoxy)-2-(2,2,2-trifluoroethyl)phenyl)-N-methylmethanesulfonamide hydrochloride]
intrinsic (basal) agonist activity, inositol phosphate (α1A-AR [2]): do not show any basal activity | PAM activity (NE-mediated cAMP potentiation, PAM assay) (α1A-AR [1]): lost PAM activity; also recorded: display competitive inhibition; also recorded: abolishes PAM activity | intrinsic (basal) agonist activity, cAMP (α1A-AR [1]): do not show any basal activity

CN(c1cccc(OCC2=NCCN2)c1CC(C)(C)C)S(C)(=O)=O.Cl [Cmpd-14, N-(3-((4,5-Dihydro-1H-imidazol-2-yl)methoxy)-2-neopentylphenyl)-N-methylmethanesulfonamide hydrochloride]
intrinsic (basal) agonist activity, inositol phosphate (α1A-AR [2]): do not show any basal activity | PAM activity (NE-mediated cAMP potentiation, PAM assay) (α1A-AR [1]): retained PAM activity; also recorded: display PAM effect | intrinsic (basal) agonist activity, cAMP (α1A-AR [1]): do not show any basal activity

NC[C@H](O)c1ccc(O)c(O)c1 [NE, norepinephrine]
fraction of receptor in the high affinity state, NE alone (α1A-AR [3]; absence of GTP): 15%

Cc1c(OCC2=NCCN2)ccc(Cl)c1NS(C)(=O)=O [RO115-1240, Dabuzalgron, reference compound]
effect on Epi-mediated inositol phosphate signal at α1A-AR (α1A-AR [2]): effects consistent with a partial or full agonist | effect on NE-mediated inositol phosphate signal at α1A-AR (α1A-AR [2]): effects consistent with a partial or full agonist | intrinsic (basal) agonist activity, inositol phosphate (α1A-AR [2]): partial agonists | PAM activity (NE-mediated cAMP potentiation, PAM assay) (α1A-AR [1]): neither RO115-1240 nor cirazoline displayed any PAM characteristics | intrinsic (basal) agonist activity, cAMP (α1A-AR [1]): partial agonists

c1ccc(C2CC2)c(OCC2=NCCN2)c1 [cirazoline, reference compound]
extent of inhibition of 125I-HEAT binding at α1A-AR (α1A-AR [3]): fully inhibit; also recorded: completely inhibited | effect on NE binding at α1A-AR (α1A-AR [3]; compound 10^−5 M, absence of GTP, 125I-HEAT): fully-inhibited the binding of NE; also recorded: completely competes off NE binding | binding at α1B-AR (125I-HEAT competition) (α1B-AR): completely inhibited | intrinsic (basal) agonist activity, inositol phosphate (α1A-AR [2]): partial agonists | effect on Epi-mediated cAMP response at α1A-AR (α1A-AR [1]; Epi dose-response, propranolol and rauwolscine present): rightward curve-shifting effects; also recorded: rightward shifting competitive effects | PAM activity (NE-mediated cAMP potentiation, PAM assay) (α1A-AR [1]): competitive inhibition; also recorded: neither RO115-1240 nor cirazoline displayed any PAM characteristics | effect on NE-mediated cAMP response at α1A-AR (α1A-AR [1]; NE dose-response, propranolol and rauwolscine present): rightward curve-shifting effects; also recorded: rightward shifting competitive effects | intrinsic (basal) agonist activity, cAMP (α1A-AR [1]): partial agonists; also recorded: greater intrinsic activity than RO115-1224 | selectivity for α1A-AR against the α1B- and α1D-AR subtypes (α1A-AR [4]): 10-50 fold | extent of inhibition of 125I-HEAT binding at α1D-AR (α1D-AR): completely inhibited

Cc1ccc(N(CC2=NCCN2)c2cccc(O)c2)cc1 [phentolamine]
extent of inhibition of 125I-HEAT binding at α1A-AR (α1A-AR [3]): fully inhibit; also recorded: completely inhibited

COC(=O)[C@H]1[C@H]2C[C@H]3c4[nH]c5ccccc5c4CCN3C[C@H]2CC[C@@H]1O [rauwolscine, reference compound]
extent of inhibition of 3H-RX821002 binding at α2A-AR (α2A-AR): fully inhibited
